The record followed here is the supplement of paper PMC8960247.

Structures can show the parent of a compound that is named as a salt. ± gives the standard error.

Experiment [1] concerns 621-102 (TSC2-deficient). The experiment in a line: relative viability vs DMSO; higher = less cytotoxic. The note with it: serum: 10% FBS, 72 h.
The test system of experiment [2] is 621-103 (TSC2-rescued). Described as above. The note with it: serum: 10% FBS, 72 h.
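Note: immortalized renal angiomyolipoma cells stably carrying empty vector or TSC2, dosed in 384-well plates in DMEM, viability normalized to vehicle-treated wells within each plate.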

`CCC[C@H](N[C@@H](C)C(=O)N1[C@H](C(=O)O)C[C@@H]2CCCC[C@@H]21)C(=O)OCC` [Perindopril Erbumine]: the relative viability was 101 ± 0.48% in experiment [1] (0.0001 µM); 106 ± 0.46% in experiment [1] (0.001 µM); 98.6 ± 1.7% in experiment [1] (0.01 µM); 104.3 ± 0.76% in experiment [1] (0.1 µM); 107.29 ± 0.055% in experiment [1] (1 µM); 73.7 ± 4.8% in experiment [1] (10 µM). Further, the relative viability turned out to be 103.3 ± 0.76% in experiment [2] (0.0001 µM); 108.5 ± 0.44% in experiment [2] (0.001 µM); 84.6 ± 1.6% in experiment [2] (0.01 µM); 111 ± 3.4% in experiment [2] (0.1 µM); 98.7 ± 11% in experiment [2] (1 µM); 79.52 ± 0.69% in experiment [2] (10 µM).
Consider `CN(C)Cc1cccc(N/C(=C2\C(=O)Nc3cc(C(N)=O)ccc32)c2ccccc2)c1`, for which the relative viability is 103 ± 1.7% in experiment [1] (0.0001 µM); 107 ± 0.88% in experiment [1] (0.001 µM); 104 ± 2% in experiment [1] (0.01 µM); 103 ± 2.6% in experiment [1] (0.1 µM); 99.92 ± 0.15% in experiment [1] (1 µM); 87.26 ± 0.14% in experiment [1] (10 µM). Besides, the relative viability in experiment [2] (0.0001 µM) is 99.8 ± 1.5%; in experiment [2] (0.001 µM) it was 97.2 ± 1.9%; in experiment [2] (0.01 µM), 99.2 ± 1.1%; in experiment [2] (0.1 µM), 97.28 ± 0.78%; in experiment [2] (1 µM), 92.4 ± 6.5%; in experiment [2] (10 µM), 84.9 ± 2.5%.
Regarding `CC(C)NCC(O)c1ccc(NS(C)(=O)=O)cc1` (stereo not given) [Sotalol HCl], the relative viability in experiment [1] (0.0001 µM) stood at 79.7 ± 5.2%; in experiment [1] (0.001 µM), 99.6 ± 3.7%; in experiment [1] (0.01 µM), 108.1 ± 1%; in experiment [1] (0.1 µM), 115 ± 6.1%; in experiment [1] (1 µM), 114 ± 2.9%; in experiment [1] (10 µM), 107 ± 6.9%. Moreover, the relative viability worked out at 92 ± 1.4% in experiment [2] (0.0001 µM); 115 ± 2% in experiment [2] (0.001 µM); 113 ± 1.3% in experiment [2] (0.01 µM); 118 ± 5.8% in experiment [2] (0.1 µM); 118 ± 1.5% in experiment [2] (1 µM); 108 ± 1.7% in experiment [2] (10 µM).
In the case of `CN1CC[C@H](c2c(O)cc(O)c3c(=O)cc(-c4ccccc4Cl)oc23)[C@H](O)C1` [Flavopiridol (Alvocidib)], the relative viability came to 104 ± 1.3% in experiment [1] (0.0001 µM); 104.1 ± 0.59% in experiment [1] (0.001 µM); 95.5 ± 5% in experiment [1] (0.01 µM); 45.4 ± 1.9% in experiment [1] (0.1 µM); 11.3 ± 0.76% in experiment [1] (1 µM); 11.7 ± 0.13% in experiment [1] (10 µM). For the same molecule, the relative viability in experiment [2] (0.0001 µM) was 103 ± 4.3%; in experiment [2] (0.001 µM) it was 100.4 ± 0.89%; in experiment [2] (0.01 µM) it was 102.2 ± 0.86%; in experiment [2] (0.1 µM) it was 55.26 ± 0.43%; in experiment [2] (1 µM), 17.8 ± 0.22%; in experiment [2] (10 µM), 21.81 ± 0.19%.
Take `Cc1ccccc1-n1c(Cn2cnc3c(N)ncnc32)nc2cccc(C)c2c1=O`: the relative viability in experiment [1] (0.0001 µM) was determined as 108.5 ± 0.61%; in experiment [1] (0.001 µM) it was 117.2 ± 0.36%; in experiment [1] (0.01 µM), 118 ± 4%; in experiment [1] (0.1 µM), 116.3 ± 0.6%; in experiment [1] (1 µM) it was 101.3 ± 0.42%; in experiment [1] (10 µM), 99.9 ± 0.73%. For the same molecule, the relative viability came to 100.1 ± 0.63% in experiment [2] (0.0001 µM); 100.4 ± 0.26% in experiment [2] (0.001 µM); 98 ± 1.1% in experiment [2] (0.01 µM); 100 ± 1.5% in experiment [2] (0.1 µM); 99.34 ± 0.9% in experiment [2] (1 µM); 96.2 ± 2.4% in experiment [2] (10 µM).
`Cc1cc(C(C)(C)C)c(O)c(C)c1CC1=NCCN1` [Oxymetazoline HCl]: the relative viability in experiment [1] (0.0001 µM) amounted to 120 ± 4.5%; in experiment [1] (0.001 µM) it was 116 ± 4.1%; in experiment [1] (0.01 µM), 112 ± 2%; in experiment [1] (0.1 µM), 107 ± 4.2%; in experiment [1] (1 µM), 113.2 ± 0.75%; in experiment [1] (10 µM), 103 ± 2.8%. For the same molecule, the relative viability was 99.9 ± 0.63% in experiment [2] (0.0001 µM); 96.5 ± 1.5% in experiment [2] (0.001 µM); 99.3 ± 6% in experiment [2] (0.01 µM); 98.5 ± 5% in experiment [2] (0.1 µM); 103 ± 4.4% in experiment [2] (1 µM); 98.8 ± 3.1% in experiment [2] (10 µM).
Turning to `CCc1c2c(nc3ccc(OC(=O)N4CCC(N5CCCCC5)CC4)cc13)-c1cc3c(c(=O)n1C2)COC(=O)[C@]3(O)CC` [Irinotecan], the relative viability in experiment [1] (0.0001 µM) worked out at 105 ± 1.2%; in experiment [1] (0.001 µM), 106 ± 3.8%; in experiment [1] (0.01 µM), 93.9 ± 2.1%; in experiment [1] (0.1 µM) it was 108 ± 2.8%; in experiment [1] (1 µM), 82 ± 0.64%; in experiment [1] (10 µM), 33.7 ± 0.69%. Also, the relative viability worked out at 104 ± 4.3% in experiment [2] (0.0001 µM); 98.62 ± 0.9% in experiment [2] (0.001 µM); 103 ± 1.1% in experiment [2] (0.01 µM); 99.19 ± 0.57% in experiment [2] (0.1 µM); 84.6 ± 1.1% in experiment [2] (1 µM); 30.2 ± 0.71% in experiment [2] (10 µM).
Consider `Cc1cn(-c2cc(NC(=O)c3ccc(C)c(Nc4nccc(-c5cccnc5)n4)c3)cc(C(F)(F)F)c2)cn1` [Nilotinib], for which the relative viability amounted to 70 ± 0.81% in experiment [1] (0.0001 µM); 71.8 ± 7.4% in experiment [1] (0.001 µM); 70.7 ± 6.9% in experiment [1] (0.01 µM); 96.2 ± 7.2% in experiment [1] (0.1 µM); 93 ± 6.9% in experiment [1] (1 µM); 18.9 ± 7.6% in experiment [1] (10 µM). Moreover, the relative viability was found to be 82.55 ± 0.76% in experiment [2] (0.0001 µM); 82.1 ± 1.1% in experiment [2] (0.001 µM); 89 ± 1.5% in experiment [2] (0.01 µM); 90.4 ± 1.4% in experiment [2] (0.1 µM); 84.5 ± 4.6% in experiment [2] (1 µM); 7.52 ± 0.28% in experiment [2] (10 µM).
Consider `Nc1cc(C(F)(F)F)c(-c2cc(N3CCOCC3)nc(N3CCOCC3)n2)cn1` [BKM120 (NVP-BKM120)], for which the relative viability in experiment [1] (0.0001 µM) amounted to 97 ± 2%; in experiment [1] (0.001 µM), 102 ± 3.6%; in experiment [1] (0.01 µM), 95.9 ± 2.2%; in experiment [1] (0.1 µM), 92.9 ± 2.6%; in experiment [1] (1 µM), 71.9 ± 3.6%; in experiment [1] (10 µM) it was 20.01 ± 0.19%. Besides, the relative viability turned out to be 102 ± 2.4% in experiment [2] (0.0001 µM); 112 ± 2.3% in experiment [2] (0.001 µM); 109.19 ± 0.024% in experiment [2] (0.01 µM); 104 ± 5% in experiment [2] (0.1 µM); 58.5 ± 2.1% in experiment [2] (1 µM); 21 ± 0.97% in experiment [2] (10 µM).
For the molecule `CC1(COc2ccc3c(c2)ncn3-c2ccc3cccc(N4CCC(N)CC4)c3n2)COC1`, the relative viability worked out at 109 ± 1.2% in experiment [1] (0.0001 µM); 98.7 ± 1.8% in experiment [1] (0.001 µM); 109 ± 4.7% in experiment [1] (0.01 µM); 98.43 ± 0.71% in experiment [1] (0.1 µM); 67.8 ± 1.8% in experiment [1] (1 µM); 2.96 ± 0.37% in experiment [1] (10 µM). Besides, the relative viability in experiment [2] (0.0001 µM) was found to be 96 ± 0.22%; in experiment [2] (0.001 µM), 111.5 ± 0.64%; in experiment [2] (0.01 µM), 110 ± 3.6%; in experiment [2] (0.1 µM), 106 ± 3.9%; in experiment [2] (1 µM) it was 77.4 ± 2.8%; in experiment [2] (10 µM) it was 4.95 ± 0.59%.
